#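 Five compound concentrations were applied to cells in 96-well plates for 48 hours; endpoints were derived by simple linear interpolation of the resulting dose-response curve. The concentration for full growth arrest is given as TGI.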
# Legend:
# Assay in all cases: inhibition of tumour cell growth, NCI panel, 48 h
# [1] = test system: 786-0 renal
# [2] = test system: A498 renal
# [3] = test system: A549 NSCLC
# [4] = test system: ACHN renal
# [5] = test system: CCRF-CEM leukemia
# [6] = test system: COLO 205 colon
# [7] = test system: DLD-1 colon
# [8] = test system: DMS 114 small cell lung
# [9] = test system: DMS 273 small cell lung
# [10] = test system: EKVX NSCLC
# [11] = test system: HCC-2998 colon
# [12] = test system: HCT-116 colon
# [13] = test system: HCT-15 colon
# [14] = test system: HOP-18 NSCLC
# [15] = test system: HOP-62 NSCLC
# [16] = test system: HOP-92 NSCLC
# [17] = test system: HT29 colon
# [18] = test system: IGROV1 ovarian
# [19] = test system: K-562 leukemia
# [20] = test system: KM12 colon
# [21] = test system: KM20L2 colon
# [22] = test system: LOX IMVI melanoma
# [23] = test system: LXFL 529 NSCLC
# [24] = test system: M14 melanoma
# [25] = test system: M19-MEL melanoma
# [26] = test system: MALME-3M melanoma
# [27] = test system: MOLT-4 leukemia
# [28] = test system: NCI-H226 lung
# [29] = test system: NCI-H23 lung
# [30] = test system: NCI-H460 lung
# [31] = test system: NCI-H522 lung
# [32] = test system: OVCAR-3 ovarian
# [33] = test system: OVCAR-4 ovarian
# [34] = test system: OVCAR-5 ovarian
# [35] = test system: OVCAR-8 ovarian
# [36] = test system: RXF 393 renal
# [37] = test system: RXF-631 renal
# [38] = test system: SF-268 CNS
# [39] = test system: SF-295 CNS
# [40] = test system: SF-539 CNS
# [41] = test system: SK-MEL-2 melanoma
# [42] = test system: SK-MEL-28 melanoma
# [43] = test system: SK-MEL-5 melanoma
# [44] = test system: SK-OV-3 ovarian
# [45] = test system: SN12C renal
# [46] = test system: SNB-19 CNS
# [47] = test system: SNB-75 CNS
# [48] = test system: SNB-78 CNS
# [49] = test system: SW-620 colon
# [50] = test system: TK-10 renal
# [51] = test system: U251 CNS
# [52] = test system: UACC-257 melanoma
# [53] = test system: UACC-62 melanoma
# [54] = test system: UO-31 renal
# [55] = test system: XF 498 CNS
# [56] = test system: CAKI-1 renal
# [57] = test system: RPMI-8226 leukemia
compound,measurement,setting,value
C/C(=N/NC(=O)c1ccccc1O)c1ccc(/C(C)=N\NC(=O)c2ccccc2O)c2nc3cc(C)c(C)cc3nc12,TGI,[1],> 100 µM
same,TGI,[2],> 100 µM
same,TGI,[3],> 100 µM
same,TGI,[4],> 100 µM
same,TGI,[5],> 100 µM
same,TGI,[6],> 100 µM
same,TGI,[7],> 100 µM
same,TGI,[8],> 100 µM
same,TGI,[9],> 100 µM
same,TGI,[10],> 100 µM
same,TGI,[11],> 100 µM
same,TGI,[12],> 100 µM
same,TGI,[13],> 100 µM
same,TGI,[14],> 100 µM
same,TGI,[15],> 100 µM
same,TGI,[16],> 100 µM
same,TGI,[17],> 100 µM
same,TGI,[18],> 100 µM
same,TGI,[19],> 100 µM
same,TGI,[20],> 100 µM
same,TGI,[21],> 100 µM
same,TGI,[22],> 100 µM
same,TGI,[23],> 100 µM
same,TGI,[24],> 100 µM
same,TGI,[25],> 100 µM
same,TGI,[26],> 100 µM
same,TGI,[27],> 100 µM
same,TGI,[28],> 100 µM
same,TGI,[29],> 100 µM
same,TGI,[30],> 100 µM
same,TGI,[31],> 100 µM
same,TGI,[32],> 100 µM
same,TGI,[33],> 100 µM
same,TGI,[34],> 100 µM
same,TGI,[35],> 100 µM
same,TGI,[36],> 100 µM
same,TGI,[37],> 100 µM
same,TGI,[38],> 100 µM
same,TGI,[39],> 100 µM
same,TGI,[40],> 100 µM
same,TGI,[41],> 100 µM
same,TGI,[42],> 100 µM
same,TGI,[43],> 100 µM
same,TGI,[44],> 100 µM
same,TGI,[45],> 100 µM
same,TGI,[46],> 100 µM
same,TGI,[47],> 100 µM
same,TGI,[48],> 100 µM
same,TGI,[49],> 100 µM
same,TGI,[50],> 100 µM
same,TGI,[51],> 100 µM
same,TGI,[52],> 100 µM
same,TGI,[53],> 100 µM
same,TGI,[54],> 100 µM
same,TGI,[55],> 100 µM
C[C@]12CC[C@H](OC3CCCCO3)CC1=CC[C@@H]1C2CC[C@]2(C)/C(=N/OCCC#N)CCC12 (stereo not given in full),TGI,[1],72.2 µM
same,TGI,[2],> 100 µM
same,TGI,[3],> 100 µM
same,TGI,[4],> 100 µM
same,TGI,[56],> 100 µM
same,TGI,[7],> 100 µM
same,TGI,[8],> 100 µM
same,TGI,[9],> 100 µM
same,TGI,[10],> 100 µM
same,TGI,[11],> 100 µM
same,TGI,[12],> 100 µM
same,TGI,[13],> 100 µM
same,TGI,[14],> 100 µM
same,TGI,[15],> 100 µM
same,TGI,[16],57.6 µM
same,TGI,[18],> 100 µM
same,TGI,[19],> 100 µM
same,TGI,[20],> 100 µM
same,TGI,[21],> 100 µM
same,TGI,[22],> 100 µM
same,TGI,[23],> 100 µM
same,TGI,[24],> 100 µM
same,TGI,[25],> 100 µM
same,TGI,[26],> 100 µM
same,TGI,[29],95.1 µM
same,TGI,[30],> 100 µM
same,TGI,[31],> 100 µM
same,TGI,[32],> 100 µM
same,TGI,[33],66.5 µM
same,TGI,[35],> 100 µM
same,TGI,[57],> 100 µM
same,TGI,[36],40.2 µM
same,TGI,[37],> 100 µM
same,TGI,[39],> 100 µM
same,TGI,[40],> 100 µM
same,TGI,[41],> 100 µM
same,TGI,[42],> 100 µM
same,TGI,[43],> 100 µM
same,TGI,[44],> 100 µM
same,TGI,[45],> 100 µM
same,TGI,[46],> 100 µM
same,TGI,[47],58.4 µM
same,TGI,[48],72.1 µM
same,TGI,[49],> 100 µM
same,TGI,[50],72.9 µM
same,TGI,[51],> 100 µM
same,TGI,[52],> 100 µM
same,TGI,[53],> 100 µM
same,TGI,[54],> 100 µM
same,TGI,[55],20.5 µM
COC(=O)C1=C(C(=O)OC)C2(C3C(SC)=CC(C)(C)CC3S1)N(Cc1ccccc1)CCN2Cc1ccccc1 (stereo not given),TGI,[1],> 100 µM
same,TGI,[3],> 100 µM
same,TGI,[4],> 100 µM
same,TGI,[56],> 100 µM
same,TGI,[5],> 100 µM
same,TGI,[6],> 100 µM
same,TGI,[7],> 100 µM
same,TGI,[8],> 100 µM
same,TGI,[9],> 100 µM
same,TGI,[10],> 100 µM
same,TGI,[12],> 100 µM
same,TGI,[13],> 100 µM
same,TGI,[14],> 100 µM
same,TGI,[15],> 100 µM
same,TGI,[16],16.1 µM
same,TGI,[17],> 100 µM
same,TGI,[18],> 100 µM
same,TGI,[19],> 100 µM
same,TGI,[20],> 100 µM
same,TGI,[21],> 100 µM
same,TGI,[22],> 100 µM
same,TGI,[23],> 100 µM
same,TGI,[24],> 100 µM
same,TGI,[25],> 100 µM
same,TGI,[26],> 100 µM
same,TGI,[27],> 100 µM
same,TGI,[28],> 100 µM
same,TGI,[29],> 100 µM
same,TGI,[30],> 100 µM
same,TGI,[31],> 100 µM
same,TGI,[32],> 100 µM
same,TGI,[33],> 100 µM
same,TGI,[34],> 100 µM
same,TGI,[35],> 100 µM
same,TGI,[57],> 100 µM
same,TGI,[36],> 100 µM
same,TGI,[37],> 100 µM
same,TGI,[38],> 100 µM
same,TGI,[39],> 100 µM
same,TGI,[40],> 100 µM
same,TGI,[41],> 100 µM
same,TGI,[42],> 100 µM
same,TGI,[43],> 100 µM
same,TGI,[44],> 100 µM
same,TGI,[45],> 100 µM
same,TGI,[46],> 100 µM
same,TGI,[47],> 100 µM
same,TGI,[48],> 100 µM
same,TGI,[49],> 100 µM
same,TGI,[50],> 100 µM
same,TGI,[51],> 100 µM
same,TGI,[52],> 100 µM
same,TGI,[53],> 100 µM
same,TGI,[54],> 100 µM
same,TGI,[55],> 100 µM
